Experimental data reported in patent publication EP0155486A1, “1,3,5-Trisubstituted 1,2,4-triazole derivatives, process for their preparation and medicinal preparations containing them” (priority 1984, dated 1985).
Read-outs that look alike come from different tables or passages of the source.

Tests used:
[1] = tested on: männlichen Ratten der Art Long Evans; assay: animal or person; assay type: in vivo; settings: for Prozentuale Hemmung bei einer peroralen Dosis von 3,12 mg/kg: peroral 3,12 mg/kg; for change in vivo at 12.5 mg/kg / change in vivo at 6.25 mg/kg: 504 h; for Prozentuale Hemmung bei einer peroralen Dosis von 1,56 mg/kg: peroral 1,56 mg/kg; for change in vivo at 6.25 mg/kg: read-out: Prozentuale Hemmung bei einer peroralen Dosis von 6,25 mg/kg; for ED50: read-out: Peroraler ED50-Wert in mg/kg an Ratten; for Therapeu-tischer Index LD50-Wert / ED50-Wert: ratio of peroral LD50 to peroral ED50, rats
Experimental: Die Untersuchung der therapeutischen Wirkung der erfindungsgemäßen 1,2,4-Triazolderivate wurde mittels des modifizierten Newbould-Prüfversuches (Brit. J. Pharmacol., 21 [1963], Seite 127) durchgeführt. Dazu wurde in die rechen Hinterfüße von männlichen Ratten der Art Long Evans mit Gewichten von 180 bis 250 g intraplantar […] abgetötetes Mycobacterium tuberculosis in einem Volumen von 0,1 ml injiziert. Nachfolgend wurden die Ratten pro betreffenden Tag mit einer Dosis der zu untersuchenden Verbindung insgesamt 16-mal während 3 Wochen behandelt. Die Änderung des Volumens der Fußschwellung wurde 21 Tage lang täglich mit einem Quecksilber-Plethysmometer vom Lence-Typ bestimmt. Vom 10-ten Tag an wurde das Volumen des linken Hinterfußes bestimmt. Die prozentuale Hemmung wurde im Verhältnis zu diesem Volumen aus der eintretenden Änderung in der Schwellung des rechten Hinterfußes berechnet.

in vivo = settings: rat, po, peroral, rats, read-out: Peroraler LD50-Wert in mg/kg an Ratten
Ratten = assay: ulcerogenic side effect; assay type: in vivo
Experimental: Auch die geschwürbildende beziehungsweise ulcerogene Wirkung, eine der kritischsten Nebenwirkungen entzündungshemmender Mittel, betreffend erwiesen sich die erfindungsgemäßen 1,2,4-Triazolderivate als im Vergleich zu Handelspräparaten günstiger. So führten Einzeldosen von 15 mg/kg 1-(p-Chlorbenzoyl)-5-(methoxy)-2-(methyl)-indol-3-ylessig- säure {Indometacin} bei 100% der Ratten Geschwüre (Ulcus) herbei, während Einzeldosen von 1 000 mg/kg 1,5-Bis-[4'--(chlor)-phenyl]-3-[methylthio]-1,2,4-triazol (Verbindung des Beispieles 27) nur bei 10% der Tiere Geschwüre verursachten.

[2] = 16 doses during 3 weeks, paw swelling, rats
[3] = po, peroral 12,5 mg/kg, 16 doses during 3 weeks, paw swelling, rats, read-out: Prozentuale Hemmung bei einer peroralen Dosis von 12,5 mg/kg
[4] = po, read-out: Prozentuale Hemmung bei einer peroralen Dosis von 12,5 mg/kg

Structure (SMILES)	Prozentuale Hemmung bei einer peroralen Dosis von 3,12 mg/kg [1, 2]	change in vivo at 12.5 mg/kg [1, 3]	change in vivo at 6.25 mg/kg ([1]; po)	also measured
CSc1nc(-c2ccccc2SC)n(-c2ccc(Cl)cc2)n1 [Beispiel 14, 1-[4'-(Chlor)-phenyl]-5-[2"-(methylthio)-phenyl]-3--[methylthio]-1,2,4-triazol]	-5%	-51%	–	–
CSc1nc(-c2ccc(Cl)cc2)n(-c2ccc(F)cc2)n1 [Beispiel 55, 1-[4'-(Fluor)-phenyl]-5-[4"-(chlor)-phenyl]-3--[methylthio]-1,2,4-triazol]	-26%	–	-68%	LD50 (in vivo): 380 mg/kg; Prozentuale Hemmung bei einer peroralen Dosis von 1,56 mg/kg [1, 2]: -12%; ED50 ([1]; po): 6.8 mg/kg; Therapeu-tischer Index LD50-Wert / ED50-Wert [1]: 55,9
CSc1nc(-c2ccc(F)cc2)n(-c2ccc(Cl)cc2)n1 [Beispiel 44, 1-[4'-(Chlor)-phenyl]-5-[4"-(fluor)-phenyl]-3--[methylthio]-1,2,4-triazol]	-64%	–	-53%	LD50 (in vivo): 170 mg/kg; Prozentuale Hemmung bei einer peroralen Dosis von 1,56 mg/kg [1, 2]: -36%; ED50 ([1]; po): 2.1 mg/kg; Therapeu-tischer Index LD50-Wert / ED50-Wert [1]: 81,0
CSc1nc(-c2ccc(F)cc2)n(-c2cccc(Cl)c2)n1 [Beispiel 53, 1-[3'-(Chlor)-phenyl]-5-[4"-(fluor)-phenyl]-3--[methylthio]-1,2,4-triazol]	–	-51%	–	–
COc1ccc2c(c1)c(CC(=O)O)c(C)n2C(=O)c1ccc(Cl)cc1 [Indometacin, 1-(p-Chlorbenzoyl)-5-(methoxy)-2-(methyl)-indol-3-ylessig-säure, reference compound]	–	–	–	Ratten mit Geschwüren (Ulcus) (Ratten; single dose 15 mg/kg, share of rats with ulcers): 100%
COc1ccc2cc([C@H](C)C(=O)O)ccc2c1 [Vergleichs-substanz B, (+)-2-[6'--(Methoxy)-naphth-2'-yl]-propionsäure, reference compound]	–	–	–	ED50 ([1]; po): 12.5 mg/kg; change in vivo at 10 mg/kg [1, 4]: -34%
CSc1nc(-c2cccs2)n(-c2ccc(Cl)cc2)n1 [Beispiel 30, 1-[4'-(Chlor)-phenyl]-5-[thien-2"-yl]-3-[methylthio]--1,2,4-triazol]	–	-44%	–	–
CSc1nc(-c2ccc(Cl)cc2)n(-c2ccc(Br)cc2)n1 [Beispiel 54, 1-[4'-(Brom)-phenyl]-5-[4"-(chlor)-phenyl]-3--[methylthio]-1,2,4-triazol]	–	-56%	-28%	–
Clc1ccc(-c2nc(SCc3ccccn3)nn2-c2ccc(Cl)cc2)cc1 [Beispiel 4, 1,5-Bis-[4'-(chlor)-phenyl]-3-[pyrid-2"-ylmethyl-thio]-1,2,4-triazol]	-38%	–	-40%	–
CSc1nc(-c2ccc(Cl)cc2)n(-c2ccc(Cl)cc2)n1 [Beispiel 27, 1,5-Bis-[4'-(chlor)-phenyl]-3--[methylthio]-1,2,4-triazol]	-39%	–	-55%	Prozentuale Hemmung bei einer peroralen Dosis von 1,56 mg/kg [1, 2]: -17%; change in vivo at 12.5 mg/kg [1, 4]: -67%; ED50 ([1]; po): 7.4 mg/kg; Tiere mit Geschwüren (Ratten; single dose 1 000 mg/kg, share of animals with ulcers): 10%
CCCCC1C(=O)N(c2ccccc2)N(c2ccccc2)C1=O [Vergleichs-substanz A, 4-(Butyl)-1,2-di-(phenyl)-pyrazolidin-3,5-dion, reference compound]	–	-7%	–	–
CSc1nc(-c2ccc(F)cc2)n(-c2ccc(F)cc2)n1 [Beispiel 41, 1-[4'-(Fluor)-phenyl]-5-[4"-(fluor)-phenyl]-3--[methylthio]-1,2,4-triazol]	-42%	–	-57%	–
CSc1nc(-c2ccc(F)cc2)n(-c2cccc(C(F)(F)F)c2)n1 [Beispiel 47, 1-[3'-(Trifluormethyl)-phenyl]-5-[4"-(fluor)-phenyl]--3-[methylthio]-1,2,4-triazol]	–	-53%	-22%	–
CSc1nc(-c2ccc(C(F)(F)F)cc2)n(-c2ccc(F)cc2)n1 [Beispiel 45, 1-[4'-(Fluor)-phenyl]-5-[4"-(trifluormethyl)-phenyl]--3-[methylthio]-1,2,4-triazol]	–	-48%	-25%	–
CSc1nc(-c2ccc(Cl)cc2)n(-c2cccc(C(F)(F)F)c2)n1 [Beispiel 42, 1-[3'-(Trifluormethyl)-phenyl]-5-[4"-(Chlor)-phenyl]--3-[methylthio]-1,2,4-triazol]	–	–	-48%	–
